In patent US11155586B2, “Cystine knot scaffold platform” (Genentech, Inc., priority 2015, dated 2021):
Positions of bridges follow the written chain, without caps; N, C: chain ends. Residues, ends and D or L forms follow the SMILES beside them.

Target: T1, hVEGF-A (Homo sapiens, UniProt P15692)
T1 sequence (P15692 207-395): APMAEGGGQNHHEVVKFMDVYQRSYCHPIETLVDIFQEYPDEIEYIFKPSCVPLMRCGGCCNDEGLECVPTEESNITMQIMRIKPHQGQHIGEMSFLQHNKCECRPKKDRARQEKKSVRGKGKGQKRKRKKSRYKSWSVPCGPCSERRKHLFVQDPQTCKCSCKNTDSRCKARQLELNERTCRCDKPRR
Assay: KDR-CHO VEGF assay to determine cellular IC50 (VEGF mediated Tyr phosphorylation of KDR)
Type: cell-based
Procedure: KDR-CHO cells (CHO cells stably transfected with gD tagged-KDR) were grown in cell growth medium (DMEM/Ham's F-12, 10% diafiltered FBS (GIBCO catalog no. 26400), 25 mM HEPES, 2 mM L-GLUTAMAX™). For VEGF stimulation assay, 5×10^4 cells/well were plated in 100 μl of cell plating medium (DMEM/Ham's F-12, 0.2% BSA, 0.25% diafiltered FBS, 25 mM HEPES, 2 mM L-GLUTAMAX™) in 96-well tissue culture plate and incubated at 37° C. overnight. The medium was replaced with 100 I1 of serum-free cell stimulation medium (DMEM/Ham's F-12, 0.5% BSA, 25 mM HEPES) and cells were incubated at 37° C. for 2 hr. One hour before stimulation, the medium was replaced with 50 I1 of serum-free cell stimulation medium. Concurrently, VEGF (50 ng/ml for hVEGF, 100 ng/ml for mVEGF and rVEGF) was pre-incubated with titrated amount of CKP or anti-VEGF in 50 μl of serum-free cell stimulation medium at 37° C. for 1 hour and added to the cells. The cells were stimulated for 15 min at 37 C and the medium is removed. The cells were lysed with 130 I1 of ice-cold cell lysis buffer (150 mM NaCl, 50 mM HEPES, 0.5% Triton-X 100, HALT protease and phosphatase inhibitor cocktail (ThermoFisher Scientific, Inc. catalog no. 78444), 5 mM EDTA). VEGF mediated Tyr phosphorylation of KDR was determined by ELISA-based assay. Briefly, MAXISORP™ 96 well plates (ThermoFisher Scientific, Inc. catalog no. 439454) were coated with 100 I1 of anti-gD antibody diluted in PBS (1 μg/ml) at 4° C. overnight and washed three times with washing buffer (PBS, 0.05% TWEEN®20, pH 7.4). The plates were blocked with 300 I1 of blocking buffer (PBS, 0.5% BSA) at room temperature for 1 hour followed by washing three times with washing buffer. The above KDR-CHO cell lysate (100 μl) was added to each well and incubated at room temperature for 2 hours. The plates were washed four times with washing buffer followed by incubation with 100 I1 of 0.5 μg/ml biotin-conjugated anti-phosphotyrosine (clone 4G10, Millipore catalog no. 16-103) in blocking buffer at room temperature for 2 hours. After washing four times, the plates were incubated with 100 I1 of HRP-conjugated streptavidin in blocking buffer at room temperature for 30 min. After washing four times, the plates were developed with 100 I1 of TMB substrate (BD Biosciences) at room temperature for 20-30 min and stopped by addition of 50 μl of H2SO4 solution. The optical density of each well was determined using a microplate reader set to 450 nm.

CC[C@H](C)[C@H](NC(=O)[C@@H]1CSSC[C@H](NC(=O)CN)C(=O)N[C@@H](CC(N)=O)C(=O)N[C@@H]([C@@H](C)CC)C(=O)N[C@@H](CCSC)C(=O)N[C@@H](CC(C)C)C(=O)N2CCC[C@H]2C(=O)N[C@@H](Cc2ccccc2)C(=O)N[C@@H](Cc2c[nH]c3ccccc23)C(=O)NCC(=O)N[C@H]2CSSC[C@H](NC(=O)[C@H](CCC(=O)O)NC(=O)[C@H](Cc3ccccc3)NC(=O)[C@H](CC(=O)O)NC(=O)[C@H](CCCNC(=N)N)NC(=O)CNC2=O)C(=O)N[C@@H](CCSC)C(=O)N[C@@H](CO)C(=O)N[C@@H](CC(=O)O)C(=O)N1)C(=O)N[C@H]1CSSC[C@@H](C(=O)NCC(=O)O)NC(=O)[C@H](CO)NC(=O)[C@H](CCC(N)=O)NC(=O)[C@H](Cc2ccc(O)cc2)NC(=O)[C@H](Cc2ccc(O)cc2)NC(=O)[C@H](CCC(N)=O)NC1=O [9.54.90.12] (H-GCNIMLPFWGCGRDFECMSDCICQYYQSCG-OH; disulfide 2-21, 11-17, 23-29; N-terminus and C-terminus assumed)
FOLD IMPROVEMENT RELATIVE TO VARIANT 9.54.90 (Table 36, from cellular IC50): 1.125

CC[C@H](C)[C@H](NC(=O)[C@@H]1CSSC[C@H](NC(=O)CN)C(=O)N[C@@H](CC(N)=O)C(=O)N[C@@H]([C@@H](C)CC)C(=O)N[C@@H](CCSC)C(=O)N[C@@H](CC(C)C)C(=O)N2CCC[C@H]2C(=O)N[C@@H](Cc2ccc(O)cc2)C(=O)N[C@@H](Cc2c[nH]c3ccccc23)C(=O)NCC(=O)N[C@H]2CSSC[C@H](NC(=O)[C@H](CCC(=O)O)NC(=O)[C@H](Cc3ccccc3)NC(=O)[C@H](CC(=O)O)NC(=O)[C@H](CCCNC(=N)N)NC(=O)CNC2=O)C(=O)N[C@@H](CCSC)C(=O)N[C@@H](CC(N)=O)C(=O)N[C@@H](CCC(N)=O)C(=O)N1)C(=O)N[C@H]1CSSC[C@@H](C(=O)NCC(=O)O)NC(=O)[C@H](CO)NC(=O)[C@H](CCC(N)=O)NC(=O)[C@H](Cc2ccc(O)cc2)NC(=O)[C@H](Cc2ccc(O)cc2)NC(=O)[C@H](CCC(N)=O)NC1=O [9.54.90.13.F8Y] (H-GCNIMLPYWGCGRDFECMNQCICQYYQSCG-OH; disulfide 2-21, 11-17, 23-29; N-terminus and C-terminus assumed)
FOLD IMPROVEMENT RELATIVE TO VARIANT 9.54.90 (Table 38, from cellular IC50): 0.67

CC[C@H](C)[C@H](NC(=O)[C@@H]1CSSC[C@H](NC(=O)CN)C(=O)N[C@@H](CC(N)=O)C(=O)N[C@@H]([C@@H](C)CC)C(=O)N[C@@H](CCSC)C(=O)N[C@@H](CC(C)C)C(=O)N2CCC[C@H]2C(=O)N[C@@H](Cc2ccccc2)C(=O)N[C@@H](Cc2c[nH]c3ccccc23)C(=O)NCC(=O)N[C@H]2CSSC[C@H](NC(=O)[C@H](CCC(=O)O)NC(=O)[C@H](Cc3ccccc3)NC(=O)[C@H](CC(=O)O)NC(=O)[C@H](CCCNC(=N)N)NC(=O)CNC2=O)C(=O)N[C@@H](CCSC)C(=O)N[C@@H](CC(N)=O)C(=O)N[C@@H](CCC(N)=O)C(=O)N1)C(=O)N[C@H]1CSSC[C@@H](C(=O)NCC(=O)O)NC(=O)[C@H](CO)NC(=O)[C@H](CCC(N)=O)NC(=O)[C@H](Cc2ccc(O)cc2)NC(=O)[C@H](Cc2ccc(O)cc2)NC(=O)[C@H](CCC(N)=O)NC1=O [9.54.90.13] (H-GCNIMLPFWGCGRDFECMNQCICQYYQSCG-OH; disulfide 2-21, 11-17, 23-29; N-terminus and C-terminus assumed)
FOLD IMPROVEMENT RELATIVE TO VARIANT 9.54.90 (Table 36, from cellular IC50): 1.41
FOLD IMPROVEMENT RELATIVE TO VARIANT 9.54.90 (Table 38, from cellular IC50): 1.41
